Laboratory results reported in patent US20210386738A1, “COMBINATION OF PRMT5 INHIBITORS AND BCL-2 INHIBITORS” (GLAXOSMITHKLINE INTELLECTUAL PROPERTY DEVELOPMENT LIMITED, priority 2018, published 2021).

Key:
Type in all cases: cell-based
[1] = system: lymphoma cell line DB; test: Standard 6-day growth-death assay, DB; details: single agent or fixed 1:1 combination; for EC50 / IC50: 144 h; for EC50: average of n=2, read-out: dEC50; for IC50: average of n=2, read-out: gIC50; for Ymin-T0 / gIC100: average of n=2
Description: (§1) The majority cell lines were obtained from GSK BioCat group, American Type Culture Collection (ATCC), or the Deutsche Sammlung von Mikroorganismen and Zellbulturen (DSMZ). All cell lines were maintained in growth medium in T75 cm^2 flasks, incubated at 37° C. with 5% CO2 and split every 3 to 4 days. Growth media conditions and cell line information are detailed in Table 1. Cells were counted using the Vi-Cell Analyzer (Beckman Coulter ViCell) to obtain viable cell counts.
(§2) Optimal cell seeding density was determined for all cell lines by monitoring proliferation over a range of seeding densities in 384-well format and identifying the seeding density at which cells grew logarithmically throughout six days. 50 uL of cells per well were plated in 384-well plates at the optimal seeding density in preferred supplemented culture media. Three plates were prepared per cell line and incubated overnight at 37° C. in 5% CO2.
(§3) In these studies, lymphoma cell lines were treated with PRMT5 inhibitor, compound A and BCL-2 targeted inhibitor, ABT-199 single agent or in combination using a fixed 1:1 ratio of each inhibitor over a 20-point titration. For compound A single and fixed 1:1 ratio combination with ABT-199 cell proliferation assay, cells were treated in duplicate with a 20-point, two-fold dilution series of Compound A, ABT-199 (≥14 μM top dose) single or combo treatment, and ≤0.15% DMSO final concentration. Plates were incubated for six days at the conditions described above. Cell growth was measured using CellTiter-Glo (Promega) and luminescence signal was detected with a BioTek Synergy Neo microplate reader. A plate of untreated cells was read at the time of compound/biologic addition to determine the T0 value representing the starting number of cells. Data were fit with a four-parameter equation to generate a concentration response curve using Assay Client software.
(§4) Results were background corrected by subtraction of values from wells containing no cells, expressed as a percentage of the T0 value (value at time=0), and plotted against compound concentration. The T0 value was normalized to 100% and represents the number of cells present at the time of compound addition. The cellular response was determined for each compound using a 4- or 6-parameter curve fit of cell viability against concentration using Assay Client software. Growth IC50 (gIC50) values correspond to the concentration intersecting the mid-point of the growth window (between DMSO and T0 values). Growth IC100 (gIC100) values correspond to the concentration at which 100% growth inhibition is achieved, based on the growth window. The Ymin−T0 value, a measure of net population cell growth or death, is calculated by subtracting the T0 value (100%) from the Ymin value (%) that is determined from the fit of the concentration response curve. Death EC50 (dEC50) values correspond to the concentration at which 50% net cell death is observed.
(§5) Individual curves were quality checked for three criteria: outlier data points, cell growth (population doubling ≥1.5), and proper curve fitting. […] Individual curves were QC checked for outlier data points, cell growth (population doubling ≥1.5), and proper curve fitting. Obvious outlier data points were omitted only as needed to ensure proper curve fit.
(§6) For fixed ratio screening, combination activity was assessed by the fold change in gIC50 compared to the 2 single agent curves by dividing the compound ratio as necessary. Combinations showing >3-fold and >5-fold change from single agent are described as below: • Fold changes ≥5 are considered to represent strong synergy. • Fold changes between 3.0 and 4.9 are considered to represent weak synergy. • Fold changes <3 are considered to represent no synergy.

[2] = system: lymphoma cell line DOHH-2; test: Standard 6-day growth-death assay, DOHH-2; details: single agent or fixed 1:1 combination; for EC50 / IC50: Homo sapiens, 144 h; for EC50: average of n=2, read-out: dEC50; for IC50: average of n=2, read-out: gIC50; for Ymin-T0 / gIC100: average of n=2
Description: as §1, §2, §3, §4, §5, §6

[3] = system: lymphoma cell line U-2932; test: Standard 6-day growth-death assay, U-2932; details: single agent or fixed 1:1 combination; for EC50 / IC50: Homo sapiens, U2932, 144 h; for EC50: average of n=2, read-out: dEC50; for IC50: average of n=2, read-out: gIC50; for Ymin-T0 / gIC100: average of n=2
Description: as §1, §2, §3, §4, §5, §6

[4] = system: lymphoma cell line NU-DUL-1; test: Standard 6-day growth-death assay, NU-DUL-1; details: single agent or fixed 1:1 combination; for IC50: average of n=2, read-out: gIC50; for Ymin-T0 / gIC100: average of n=2
Description: as §1, §2, §3, §4, §5, §6

[5] = system: lymphoma cell line WSU-FSCCL; test: Standard 6-day growth-death assay, WSU-FSCCL; details: single agent or fixed 1:1 combination; for EC50 / IC50: 144 h; for EC50: average of n=2, read-out: dEC50; for IC50: average of n=2, read-out: gIC50; for Ymin-T0 / gIC100: average of n=2
Description: as §1, §2, §3, §4, §5, §6

[6] = system: lymphoma cell line SU-DHL-4; test: Standard 6-day growth-death assay, SU-DHL-4; details: single agent or fixed 1:1 combination; for EC50 / IC50: Homo sapiens, 144 h; for EC50: average of n=2, read-out: dEC50; for IC50: average of n=2, read-out: gIC50; for Ymin-T0 / gIC100: average of n=2
Description: as §1, §2, §3, §4, §5, §6

[7] = system: lymphoma cell line JV-M2*; test: Standard 6-day growth-death assay, JV-M2*; details: single agent or fixed 1:1 combination; for IC50: average of n=2, read-out: gIC50; for Ymin-T0 / gIC100: average of n=2
Description: as §1, §2, §3, §4, §5, §6

[8] = system: lymphoma cell line WSU-DLCL2; test: Standard 6-day growth-death assay, WSU-DLCL2; details: single agent or fixed 1:1 combination; for EC50 / IC50: Homo sapiens, WSUDLCL2, 144 h; for EC50: average of n=2, read-out: dEC50; for IC50: average of n=2, read-out: gIC50; for Ymin-T0 / gIC100: average of n=2
Description: as §1, §2, §3, §4, §5, §6

Structure (SMILES)	EC50 [1] [nM]	IC50 [1] [nM]	Ymin-T0 [1] [%]	gIC100 [1] [µM]	EC50 [2] [nM]	IC50 [2] [nM]	Ymin-T0 [2] [%]	gIC100 [2] [nM]	EC50 [3] [nM]	IC50 [3] [nM]	Ymin-T0 [3] [%]	gIC100 [3] [nM]	IC50 ([4]; Homo sapiens, 144 h) [nM]	Ymin-T0 [4] [%]	gIC100 [4] [µM]	EC50 [5] [nM]	IC50 [5] [nM]	Ymin-T0 [5] [%]	gIC100 [5] [µM]	EC50 [6] [nM]	further results
CC1(C)CCC(CN2CCN(c3ccc(C(=O)NS(=O)(=O)c4ccc(NCC5CCOCC5)c([N+](=O)[O-])c4)c(Oc4cnc5[nH]ccc5c4)c3)CC2)=C(c2ccc(Cl)cc2)C1 [ABT-199, venetoclax, reference compound]	> 14700	2480	449	> 14.7	1820	51	−69	2897	3070	113	−92	1366	3020	−45	4.832	14600	238	−49	10.53	13000	IC50 [6]: 673 nM; Ymin-T0 [6]: 316%; gIC100 [6]: 12.485 µM; EC50 ([7]; Homo sapiens, JVM-2, 144 h, average of n=2, read-out: dEC50): 9080 nM; IC50 ([7]; Homo sapiens, JVM-2, 144 h): 27 nM; Ymin-T0 [7]: −63%; gIC100 [7]: 1607 nM; EC50 [8]: > 14700 nM; IC50 [8]: 6920 nM; Ymin-T0 [8]: 3182%; gIC100 [8]: > 14.7 µM
O=C(NC[C@H](O)CN1CCc2ccccc2C1)c1ccnc(NC2CCC2)c1 [Compound A]	> 14700	862	194	> 14.7	1940	41	−100	1474	3070	281	−88	1542	3730	−11	12.659	> 14700	388	224	14.663	> 14700	EC50 ([4]; Homo sapiens, 144 h, average of n=2, read-out: dEC50): > 14700 nM; IC50 [6]: 743 nM; Ymin-T0 [6]: 1083%; gIC100 [6]: 14.663 µM; IC50 ([7]; Homo sapiens, JVM-2, 144 h): 139 nM; Ymin-T0 [7]: −14%; gIC100 [7]: 2211 nM; EC50 [8]: > 14700 nM; IC50 [8]: 1160 nM; Ymin-T0 [8]: 2474%; gIC100 [8]: > 14.7 µM
